Results from publication PMC11879280, “Antimicrobial activity of peptoids against Metallo-β-lactamase-producing Klebsiella pneumoniae, Acinetobacter baumannii, Pseudomonas aeruginosa, and other WHO priority pathogens, including Candida auris” (Journal of Applied Microbiology, 2025).
Values after ≈ are worked out from the molar mass of the structure shown. Where two headings read alike, the source gives them in different places. Square brackets hold non-standard residues; d marks the D form. Peptide text beside a SMILES is read from it. Nspe(4-Br) = C[C@H](NCC(=O)O)c1ccc(Br)cc1; Nspe = C[C@H](NCC(=O)O)c1ccccc1; NDecylGly = CCCCCCCCCCNCC(=O)O; Nlys = NCCCCNCC(=O)O

What was measured:
[1] = tested on: E. coli 0011
How it was run: (§1)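 Bacteria were suspended at 5 × 10^5 CFU ml^−1 in CAMHB for antibiotics or MHB for peptidomimetics, then incubated at 37°C, 120 rpm for 16–20 h. Suspensions were log10 diluted and plated on Trypticase Soya Agar with phosphatidylcholine and Tween 80 for MBC.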

[2] = tested on: P. aeruginosa AR-1270
How it was run: as §1

[3] = tested on: K. pneumoniae JIE2713
How it was run: as §1

[4] = tested on: S. aureus 105
How it was run: as §1

[5] = tested on: Enteroc. faecalis NCTC 13 379
How it was run: as §1

[6] = tested on: A. baumannii ATCC 19 606
How it was run: as §1

[7] = tested on: K. pneumoniae JIE2709
How it was run: as §1

[8] = tested on: S. aureus 04
How it was run: as §1

[9] = tested on: En. cloacae 003
How it was run: as §1

[10] = tested on: K. pneumoniae JIE4212
How it was run: as §1

[11] = tested on: A. baumannii 006
How it was run: as §1

[12] = tested on: A. baumannii 007
How it was run: as §1

[13] = tested on: S. aureus 38
How it was run: as §1

[14] = tested on: S. aureus 117
How it was run: as §1

[15] = tested on: En. cloacae 001
How it was run: as §1

[16] = tested on: E. coli 005
How it was run: as §1

[17] = tested on: E. coli 0015
How it was run: as §1

[18] = tested on: A. baumannii 008
How it was run: as §1

[19] = tested on: En. cloacae 005
How it was run: as §1

[20] = tested on: C. auris CBS12373; assay: Broth microdilution MIC; type: cell-based, Candida auris
[21] = tested on: C. auris strains; conditions: for Geometric mean MICCA: two C. auris strains
Description: (§2) Briefly, bacteria were suspended in cation-adjusted Mueller–Hinton broth (CAMHB; Oxoid, UK) for antibiotics, or MHB (Oxoid, UK) for peptidomimetics to obtain 5 × 10^5 colony forming unit (CFU) ml^−1. […] Positive controls contained only microbes, and blanks contained only media. Microbial suspensions (100 µl) were added to wells, plates wrapped, and incubated at 37°C, 120 rpm for 16–20 h. After incubation, suspensions were removed, log10 diluted, and plated on Trypticase Soya Agar with phosphatidylcholine and Tween 80 to determine minimum bactericidal or fungicidal concentration (MBC or MFC). […] Geometric mean MIC of the peptoids were calculated to evaluate the broad overview of antimicrobial activity across the pathogens.
(§3) The therapeutic indices (TIs) of the compounds were calculated with the use of following formula: […]

[22] = tested on: ESKAPEE pathogens (all bacteria); assay: Geometric mean MIC, therapeutic index and selectivity ratio, all bacteria; type: cell-based; conditions: for Geometric mean MIC, all bacteria: across the 23 ESKAPEE strains
Description: as §2, §3

[23] = tested on: C. auris CBS10913
[24] = tested on: Enterobacteriaceae; assay: Geometric mean MIC, therapeutic index and selectivity ratio, Enterobacteriaceae; type: cell-based; conditions: Enterobacteriaceae (E. coli, K. pneumoniae, and E. aerogenes)
Description: as §2, §3

[25] = E. coli 0011, MHB (melimine/Mel4 with 0.2% BSA, 0.01% acetic acid), mean MIC
[26] = P. aeruginosa AR-1270, MHB (melimine/Mel4 with 0.2% BSA, 0.01% acetic acid), mean MIC
[27] = K. pneumoniae JIE2713, MHB (melimine/Mel4 with 0.2% BSA, 0.01% acetic acid), mean MIC
[28] = S. aureus 105, MHB (melimine/Mel4 with 0.2% BSA, 0.01% acetic acid), mean MIC
[29] = Enteroc. faecalis NCTC 13 379, MHB (melimine/Mel4 with 0.2% BSA, 0.01% acetic acid), mean MIC
[30] = A. baumannii ATCC 19 606, MHB (melimine/Mel4 with 0.2% BSA, 0.01% acetic acid), mean MIC
[31] = K. pneumoniae JIE2709, MHB (melimine/Mel4 with 0.2% BSA, 0.01% acetic acid), mean MIC
[32] = S. aureus 004, MHB (melimine/Mel4 with 0.2% BSA, 0.01% acetic acid), mean MIC
[33] = En. cloacae 003, MHB (melimine/Mel4 with 0.2% BSA, 0.01% acetic acid), mean MIC
[34] = K. pneumoniae JIE4212, MHB (melimine/Mel4 with 0.2% BSA, 0.01% acetic acid), mean MIC
[35] = A. baumannii 006, MHB (melimine/Mel4 with 0.2% BSA, 0.01% acetic acid), mean MIC
[36] = A. baumannii 007, MHB (melimine/Mel4 with 0.2% BSA, 0.01% acetic acid), mean MIC
[37] = S. aureus 38, MHB (melimine/Mel4 with 0.2% BSA, 0.01% acetic acid), mean MIC
[38] = S. aureus 117, MHB (melimine/Mel4 with 0.2% BSA, 0.01% acetic acid), mean MIC
[39] = En. cloacae 001, MHB (melimine/Mel4 with 0.2% BSA, 0.01% acetic acid), mean MIC
[40] = E. coli 005, MHB (melimine/Mel4 with 0.2% BSA, 0.01% acetic acid), mean MIC
[41] = E. coli 0015, MHB (melimine/Mel4 with 0.2% BSA, 0.01% acetic acid), mean MIC
[42] = A. baumannii 008, MHB (melimine/Mel4 with 0.2% BSA, 0.01% acetic acid), mean MIC
[43] = En. cloacae 005, MHB (melimine/Mel4 with 0.2% BSA, 0.01% acetic acid), mean MIC
[44] = CBS 12 373, RPMI 1640 with MOPS, 5 × 10^3 CFU ml^−1, ≥90% reduction (≥50% for fluconazole)
[45] = CBS 10 913, RPMI 1640 with MOPS, 5 × 10^3 CFU ml^−1, ≥90% reduction (≥50% for fluconazole)

SMILES: CCCCCCCCCCNCC(=O)N(CCCCN)CC(=O)N(CC(=O)N(CC(=O)N(CCCCN)CC(=O)N(CC(=O)N(CC(N)=O)[C@@H](C)c1ccccc1)[C@@H](C)c1ccccc1)[C@@H](C)c1ccccc1)[C@@H](C)c1ccccc1 [TM8] (H-[NDecylGly][Nlys][Nspe][Nspe][Nlys][Nspe][Nspe]-NH2)
- MIC of peptidomimetics [1]; 0011: 14.0 µM
- MIC of peptidomimetics [1, 25]: 15.6 µg/mL
- MIC of peptidomimetics ([2]; AR-1270): 14.0 µM
- MIC of peptidomimetics [2, 26]: 15.6 µg/mL
- MIC of peptidomimetics ([3]; JIE2713): 14.0 µM
- MIC of peptidomimetics [3, 27]: 15.6 µg/mL
- MIC of peptidomimetics [4]; 105: 3.5 µM
- MIC of peptidomimetics [4, 28]: 3.9 µg/mL
- MIC of peptidomimetics [5, 29]: 7.8 µg/mL
- MIC of peptidomimetics ([5]; NCTC 13): 7.0 µM
- MIC of peptidomimetics [6, 30]: 3.9 µg/mL
- MIC of peptidomimetics ([6]; ATCC 19): 3.5 µM
- MIC of peptidomimetics ([7]; JIE2709): 14.0 µM
- MIC of peptidomimetics [7, 31]: 15.6 µg/mL
- MIC of peptidomimetics [8]; 04: 3.5 µM
- MIC of peptidomimetics [8, 32]: 3.9 µg/mL
- MIC of peptidomimetics [9]: 7.0 µM
- MIC of peptidomimetics [9, 33]: 7.8 µg/mL
- MIC of peptidomimetics ([10]; JIE4212): 7.0 µM
- MIC of peptidomimetics [10, 34]: 7.8 µg/mL
- MIC of peptidomimetics [11]; 006: 3.5 µM
- MIC of peptidomimetics [11, 35]: 3.9 µg/mL
- MIC of peptidomimetics [12]; 007: 3.5 µM
- MIC of peptidomimetics [12, 36]: 3.9 µg/mL
- MIC of peptidomimetics [13]; 38: 3.5 µM
- MIC of peptidomimetics [13, 37]: 3.9 µg/mL
- MIC of peptidomimetics [14]; 117: 3.5 µM
- MIC of peptidomimetics [14, 38]: 3.9 µg/mL
- MIC of peptidomimetics [15]: 7.0 µM
- MIC of peptidomimetics [15, 39]: 7.8 µg/mL
- MIC of peptidomimetics [16]; 005: 7.0 µM
- MIC of peptidomimetics [16, 40]: 7.8 µg/mL
- MIC of peptidomimetics [17]; 0015: 7.0 µM
- MIC of peptidomimetics [17, 41]: 7.8 µg/mL
- MIC of peptidomimetics [18]; 008: 7.0 µM
- MIC of peptidomimetics [18, 42]: 7.8 µg/mL
- MIC of peptidomimetics [19]: 14.0 µM
- MIC of peptidomimetics [19, 43]: 15.6 µg/mL
- MIC against C. auris [20, 44]: 3.9 µg/mL
- MIC90 ([20]; CBS12373): 15.6 µg/mL (≈ 14 µM)
- MIC against C. auris ([20]; CBS12373): 3.5 µM
- MIC against both C. auris strains ([21]; strains): < 10 µg/mL
- Geometric mean MICCA [21]: 5.5 µg/mL
- Geometric mean MIC, all bacteria [22]: 7.3 µg/mL
- Geometric mean MIC, all bacteria ([22]; value in brackets): 6.6 µM
- MIC against C. auris [23, 45]: 7.8 µg/mL
- MIC against C. auris ([23]; CBS10913): 7.0 µM
- MIC at high cell density ([23]; CBS10913): 15.6 µg/mL (≈ 14 µM)
- Geometric mean MICE [24]: 11.0 µg/mL

SMILES: C[C@@H](c1ccc(Br)cc1)N(CC(=O)N(CCCCN)CC(=O)N(CC(=O)N(CC(=O)N(CCCCN)CC(N)=O)[C@@H](C)c1ccc(Br)cc1)[C@@H](C)c1ccccc1)C(=O)CN(C(=O)CNCCCCN)[C@@H](C)c1ccccc1 [TM12] (H-[Nlys][Nspe][Nspe(4-Br)][Nlys][Nspe][Nspe(4-Br)][Nlys]-NH2)
- MIC of peptidomimetics [1]; 0011: 25.9 µM
- MIC of peptidomimetics [1, 25]: 31.3 µg/mL
- MIC of peptidomimetics ([2]; AR-1270): 103.8 µM
- MIC of peptidomimetics [2, 26]: 125 µg/mL
- MIC of peptidomimetics ([3]; JIE2713): 103.8 µM
- MIC of peptidomimetics [3, 27]: 125 µg/mL
- MIC of peptidomimetics [4]; 105: 6.5 µM
- MIC of peptidomimetics [4, 28]: 7.8 µg/mL
- MIC of peptidomimetics [5, 29]: 7.8 µg/mL
- MIC of peptidomimetics ([5]; NCTC 13): 6.5 µM
- MIC of peptidomimetics [6, 30]: 125 µg/mL
- MIC of peptidomimetics ([6]; ATCC 19): 103.8 µM
- MIC of peptidomimetics ([7]; JIE2709): 103.8 µM
- MIC of peptidomimetics [7, 31]: 125 µg/mL
- MIC of peptidomimetics [8]; 04: 3.3 µM
- MIC of peptidomimetics [8, 32]: 3.9 µg/mL
- MIC of peptidomimetics [9]: 3.3 µM
- MIC of peptidomimetics [9, 33]: 3.9 µg/mL
- MIC of peptidomimetics ([10]; JIE4212): 103.8 µM
- MIC of peptidomimetics [10, 34]: 125 µg/mL
- MIC of peptidomimetics [11]; 006: 103.8 µM
- MIC of peptidomimetics [11, 35]: 125 µg/mL
- MIC of peptidomimetics [12]; 007: 51.8 µM
- MIC of peptidomimetics [12, 36]: 62.5 µg/mL
- MIC of peptidomimetics [13]; 38: 6.5 µM
- MIC of peptidomimetics [13, 37]: 7.8 µg/mL
- MIC of peptidomimetics [14]; 117: 3.3 µM
- MIC of peptidomimetics [14, 38]: 3.9 µg/mL
- MIC of peptidomimetics [15]: 13.0 µM
- MIC of peptidomimetics [15, 39]: 15.6 µg/mL
- MIC of peptidomimetics [16]; 005: 103.8 µM
- MIC of peptidomimetics [16, 40]: 125 µg/mL
- MIC of peptidomimetics [17]; 0015: 51.8 µM
- MIC of peptidomimetics [17, 41]: 62.5 µg/mL
- MIC of peptidomimetics [18]; 008: 51.8 µM
- MIC of peptidomimetics [18, 42]: 62.5 µg/mL
- MIC of peptidomimetics [19]: 13.0 µM
- MIC of peptidomimetics [19, 43]: 15.6 µg/mL
- MIC against C. auris [20, 44]: 3.9 µg/mL
- MIC against C. auris ([20]; CBS12373): 3.2 µM
- Geometric mean MICCA [21]: 15.6 µg/mL
- Geometric mean MIC, all bacteria [22]: 31.2 µg/mL
- Geometric mean MIC, all bacteria ([22]; value in brackets): 26.0 µM
- Fold increase in geometric mean MIC relative to TM4 ([22]; bacteria): 3 fold
- MIC against C. auris [23, 45]: 62.5 µg/mL
- MIC against C. auris ([23]; CBS10913): 51.9 µM
- Geometric mean MICE [24]: 47.4 µg/mL
